Laboratory results from PMC8622623, “Histamine H3 Receptor Ligands—KSK-59 and KSK-73—Reduce Body Weight Gain in a Rat Model of Excessive Eating” (Pharmaceuticals, 2021).
Entries after “also recorded” stand apart in the source; their conditions may differ. Like-named read-outs stand apart in the source and are kept apart here.

Key:
H3 histamine receptor = biological target: T1, H3 histamine receptor (Homo sapiens, UniProt Q9Y5N1); assay: Lance cAMP intrinsic activity assay (antagonist dose-response); assay type: cell-based
T1 construct: host or cells: recombinant frozen ready-to-use cells
Description: Intrinsic activity studies were performed by two methods, Aequoscreen and Lance cAMP assays according to the manufacturer of the ready to use cells with stable expression of the H3 histamine receptor (Perkin Elmer, Waltham, MA, USA).
The LANCE Ultra cAMP assay as a homogeneous time-resolved fluorescence resonance energy transfer (TR-FRET) immunoassay is designed to measure cAMP produced upon modulation of adenylyl cyclase activity by GPCRs. The assay is based on the competition between the europium (Eu) chelate-labeled cAMP tracer and sample cAMP for binding sites on cAMP-specific monoclonal antibodies labeled with the ULight dye.
For measurement cells (frozen, ready to use) were thawed and resuspended in 4 mL of HBSS 1X. Then cells suspension was placed in a 15 mL Falcon tube and centrifuged for 10 min at 275× g. Pellet was resuspended in 1.5 mL HBSS 1X to determine cells concentration, and after next centrifugation cells were resuspended in stimulation buffer at appropriate concentration. […] Cell stimulation was performed for 30 min at RT°, and the agonist and antagonists were added simultaneously.

[1] = system: non-obese rats fed palatable diet; assay: Model of excessive eating: body weight, calorie intake, fat pads; assay type: in vivo, female Wistar rats; conditions: for body weight gain: i.p. daily 28 days, vs palatable diet + vehicle; for caloric intake over the 28 days: i.p., KSK compounds 10 mg/kg b.w. or bupropion/naltrexone
Description: Female Wistar rats were housed in pairs. […] The water was available ad libitum. Palatable control group (palatable diet + vehicle) received vehicle (1% Tween 80, i.p.), while palatable test groups (palatable diet + compound) were injected i.p. tested compounds at the dose of 10 or 1 mg/kg b.w./day suspended in 1% Tween 80 or the reference compound bupropion/naltrexon. The combination of bupropion at a dose of 20 mg/kg b.w./day and naltrexone at a dose of 1 mg/kg b.w./day was also suspended in 1% Tween 80 and administered i.p. Weight was evaluated daily. Calorie intake was evaluated ones per week. On the 31st day, 20 min after i.p. administration of heparin (5000 units/rat) and thiopental (70 mg/kg b.w.), animals were sacrificed and peritoneal fat pads were collected (Figure 11).
Palatable diet contained: 100 g peanuts—612 kcal; 100 mL condensed milk—131 kcal; 100 g milk chocolate—529 kcal; 100 g cheese—325 kcal. Standard diet contained 100 g feed—280 kcal.

[2] = system: non-obese rats fed palatable diet; assay: Intraperitoneal glucose tolerance test after 28 administrations; assay type: in vivo, female Wistar rats; conditions: for blood glucose levels at 30 or/and 60 min after glucose load: KSK compounds 10 mg/kg b.w. or bupropion/naltrexone, glucose 1 g/kg i.p., vs control fed palatable feed; for AUC of IPGTT: vs control rats fed high-calorie feed
Description: The test was performed on the 29th day of the experiment. After twenty-eight administrations of the test compounds, food was discontinued for 20 h and then glucose tolerance was tested. Glucose (1 g/kg b.w.) was administrated i.p.. […] The area under the curve (AUC) was calculated using the trapezoidal rule.

[3] = design: method as in PMID 31362197; conditions: PAMPA, published previously ref 17; cited from earlier work
in vitro = conditions: PAMPA, pH 7.4
Description: The reference compounds, well-permeable caffeine and low-permeable norfloxacin were obtained from Sigma-Aldrich (St. Louis, MO, USA). Used for this study, pre-coated PAMPA Plate System Gentest™ was provided by Corning (Tewksbury, MA, USA). The system consisted of 96-well receiver filter plate pre-coated with structured layers of phospholipids and a donor microplate. The assay was performed as described previously. […] After 5 h of incubation at RT° the UPLC-MS spectrometry (Waters ACQUITY™ TQD system with the TQ Detector, Waters, Milford, MA, USA) method was used to estimate the quantity of compounds that penetrated from donor to acceptor wells. The permeability coefficients (Pe, cm/s) were calculated using the formulas provided by Corning.

[4] = antagonist dose-response with reference agonist (R)-alpha-methylhistamine at EC80, read-out: Lance cAMP IC50
[5] = text summary over both methods (Lance cAMP and Aequoscreen), read-out: IC50 value
[6] = palatable feed, KSK compounds 10 mg/kg b.w. or bupropion/naltrexone combination
[7] = palatable feed, vs palatable feed + vehicle

T1 sequence (Q9Y5N1 whole entry): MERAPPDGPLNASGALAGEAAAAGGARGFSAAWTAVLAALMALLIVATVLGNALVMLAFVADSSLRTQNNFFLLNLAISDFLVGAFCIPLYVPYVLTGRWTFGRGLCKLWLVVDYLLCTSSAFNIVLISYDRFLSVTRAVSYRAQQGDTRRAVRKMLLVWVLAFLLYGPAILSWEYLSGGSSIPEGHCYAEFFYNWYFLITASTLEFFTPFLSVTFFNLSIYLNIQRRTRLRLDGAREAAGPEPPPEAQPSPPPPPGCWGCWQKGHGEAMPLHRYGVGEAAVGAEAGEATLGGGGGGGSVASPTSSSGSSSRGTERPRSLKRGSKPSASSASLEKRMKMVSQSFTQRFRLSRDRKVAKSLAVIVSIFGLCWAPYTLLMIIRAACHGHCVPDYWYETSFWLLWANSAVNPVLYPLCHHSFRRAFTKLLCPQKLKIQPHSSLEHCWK

CC(=O)c1ccc(OCCCCCCCCN2CCN(c3ccncc3)CC2)cc1.O=C(O)C(=O)O [KSK-73, 1-(4-((8-(4-(pyridin-4-yl)piperazin-1-yl)octyl)oxy)phenyl)ethan-1-one oxalate]
IC50 (H3 histamine receptor; [4]): 10.5 ± 1.5 nM
IC50 (H3 histamine receptor; [5]): 10 to 20 nM
fat pads in the peritoneal cavity ([1]; end of experiment, vs palatable feed + vehicle): Significantly fewer fat pads
body weight after the first administration ([1]; palatable feed, i.p. 10 mg/kg b.w., 10 mg/kg): slowed down the rats’ body weight gain already after the first administration; also recorded: weight loss after the first administration
body weight gain ([1]; palatable feed, 1 mg/kg b.w.): caused significantly greater weight gain
body weight gain [1, 6]: gained less weight than the control group fed palatable diet
caloric intake over the 28 days [1, 7]: significantly reduced animals caloric intake
blood glucose levels at 30 or/and 60 min after glucose load [2]: significantly lower
AUC of IPGTT [2]: statistically significantly decreased
Pe (permeability coefficient) ± SD [3]: 6.22 ± 2.3 10^−6 cm/s

CC(=O)c1ccc(OCCCCCCN2CCN(c3ccncc3)CC2)cc1.O=C(O)C(=O)O [KSK-59, 1-(4-((6-(4-(pyridin-4-yl)piperazin-1-yl)hexyl)oxy)phenyl)ethan-1-one oxalate]
IC50 (H3 histamine receptor; [4]): 3.79 ± 0.4 nM
IC50 (H3 histamine receptor; [5]): ~3 nM
Papp at 5 h, 200 µM (in vitro): 4.35 ± 0.93 ×10⁻⁶ cm/s
body weight gain ([1]; palatable feed, 1 mg/kg b.w.): did not significantly affect weight gain
body weight gain [1, 6]: gained less weight than the control group fed palatable diet
caloric intake over the 28 days [1, 7]: comparable to the amount consumed by the control rats
blood glucose levels at 30 or/and 60 min after glucose load [2]: significantly lower
AUC of IPGTT [2]: statistically significantly decreased
